Test results from ChEMBL document CHEMBL1201862, “PubChem BioAssay data set” (2004).
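Briefly, cells in 96-well plates were exposed to five compound concentrations for 48 h, and endpoints were estimated by linear interpolation. GI50 is the concentration that inhibits growth by half.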 Active and inactive are the calls of the source. Rule as the data show it: active = GI50 up to about 1.1 µM and inactive = higher.

Key:
Test in all cases: growth of human tumour cells (NCI), 48 h
A549 = test system: A549
COLO 205 = test system: COLO 205
HCT-116 = test system: HCT-116
HL-60 = test system: HL-60
HOP-92 = test system: HOP-92
MDA-MB-435 = test system: MDA-MB-435
MDA-N = test system: MDA-N
NCI-H226 = test system: NCI-H226
NCI-H522 = test system: NCI-H522
PC-3 = test system: PC-3
SF-295 = test system: SF-295
SF-539 = test system: SF-539
SK-MEL-28 = test system: SK-MEL-28
SK-MEL-2 = test system: SK-MEL-2
SK-MEL-5 = test system: SK-MEL-5
SN12C = test system: SN12C
SR = test system: SR
SW-620 = test system: SW-620
UACC-257 = test system: UACC-257
HOP-62 = test system: HOP-62

In the case of COc1ccc2cc1Oc1ccc(cc1)CC1c3cc(OC)c(cc3CCN1C)Oc1c(OC)c(OC)cc3c1C(C2)N(C)CC3 (stereo unspecified), the GI50 (A549) is reported as 17.5 µM (inactive), the GI50 (COLO 205) is reported as 2.49 µM (inactive) and the GI50 (HCT-116) is reported as 19.1 µM (inactive). The GI50 (HL-60) was 4.71 µM (inactive), the GI50 (HOP-92) was 16.3 µM (inactive) and the GI50 (MDA-MB-435) was 12 µM (inactive). For the same molecule, the GI50 (MDA-N) was 10.5 µM (inactive), the GI50 (NCI-H226) was 16.9 µM (inactive) and the GI50 (NCI-H522) was 9.89 µM (inactive). For the same molecule, the GI50 (PC-3) was 11.9 µM (inactive), the GI50 (SF-295) was 9.06 µM (inactive) and the GI50 (SF-539) was 8.95 µM (inactive). For the same molecule, the GI50 (SK-MEL-28) was 14.5 µM (inactive), the GI50 (SK-MEL-2) was 12.8 µM (inactive) and the GI50 (SK-MEL-5) was 6.79 µM (inactive). The GI50 (SN12C) was 9.02 µM (inactive), the GI50 (SR) was 1.17 µM (inactive) and the GI50 (SW-620) was 26.2 µM (inactive). The GI50 (UACC-257) was 6.75 µM (inactive).

For COc1cc(S(=O)(=O)Nc2ccc(-c3csc(N4C(=O)C(C)SC4c4ccccc4O)n3)cc2)ccc1Cl (stereo unspecified), the GI50 (A549) was > 100 µM (inactive), the GI50 (COLO 205) was 25.2 µM (inactive) and the GI50 (HCT-116) was 30.1 µM (inactive). For the same molecule, the GI50 (HL-60) was 27.3 µM (inactive), the GI50 (HOP-62) was 82.6 µM (inactive) and the GI50 (HOP-92) was 31.3 µM (inactive). For the same molecule, the GI50 (MDA-MB-435) was 37.8 µM (inactive), the GI50 (MDA-N) was 28.6 µM (inactive) and the GI50 (NCI-H226) was 28.6 µM (inactive). For the same molecule, the GI50 (NCI-H522) was 18.3 µM (inactive), the GI50 (PC-3) was 29.9 µM (inactive) and the GI50 (SF-295) was 59.3 µM (inactive). For the same molecule, the GI50 (SF-539) was 34.8 µM (inactive), the GI50 (SK-MEL-28) was 16.1 µM (inactive) and the GI50 (SK-MEL-2) was 42 µM (inactive). For the same molecule, the GI50 (SK-MEL-5) was 32.1 µM (inactive), the GI50 (SN12C) was 40.9 µM (inactive) and the GI50 (SR) was 36.2 µM (inactive). For the same molecule, the GI50 (SW-620) was 34.8 µM (inactive).

With Nc1nn2c(C(Br)Br)cc(C(Br)Br)nc2c1[N+](=O)[O-] the GI50 (A549) was 2.43 µM (inactive), the GI50 (COLO 205) was 0.659 µM (active) and the GI50 (HCT-116) was 0.634 µM (active). For the same molecule, the GI50 (HL-60) was 0.178 µM (active), the GI50 (HOP-62) was 1.88 µM (inactive) and the GI50 (HOP-92) was 1.17 µM (inactive). The GI50 (MDA-MB-435) was 0.587 µM (active), the GI50 (MDA-N) was 1.34 µM (inactive) and the GI50 (NCI-H226) was 2.21 µM (inactive). The GI50 (NCI-H522) was 0.37 µM (active), the GI50 (PC-3) was 1.36 µM (inactive) and the GI50 (SF-295) was 1.77 µM (inactive). The GI50 (SF-539) was 0.785 µM (active), the GI50 (SK-MEL-28) was 1.53 µM (inactive) and the GI50 (SK-MEL-2) was 1.89 µM (inactive). For the same molecule, the GI50 (SK-MEL-5) was 1.49 µM (inactive), the GI50 (SN12C) was 1.6 µM (inactive) and the GI50 (SR) was 0.283 µM (active). For the same molecule, the GI50 (SW-620) was 0.244 µM (active) and the GI50 (UACC-257) was 1.32 µM (inactive).

In the case of Nc1ccc2c(=O)cc(-c3ccc(Br)s3)[nH]c2n1, the GI50 (A549) is reported as 5.5 µM (inactive), the GI50 (COLO 205) is reported as 2.5 µM (inactive) and the GI50 (HCT-116) is reported as 3.02 µM (inactive). For the same molecule, the GI50 (HL-60) was 2.41 µM (inactive), the GI50 (HOP-62) was 4.86 µM (inactive) and the GI50 (HOP-92) was 12.7 µM (inactive). For the same molecule, the GI50 (MDA-MB-435) was 0.32 µM (active), the GI50 (MDA-N) was 0.323 µM (active) and the GI50 (NCI-H226) was 2.15 µM (inactive). The GI50 (NCI-H522) was 1.42 µM (inactive), the GI50 (PC-3) was 2.74 µM (inactive) and the GI50 (SF-295) was 2.83 µM (inactive). For the same molecule, the GI50 (SF-539) was 2.16 µM (inactive), the GI50 (SK-MEL-28) was 3.08 µM (inactive) and the GI50 (SK-MEL-2) was > 100 µM (inactive). For the same molecule, the GI50 (SK-MEL-5) was 1.35 µM (inactive), the GI50 (SN12C) was 6.55 µM (inactive) and the GI50 (SR) was 0.267 µM (active). For the same molecule, the GI50 (SW-620) was 1.12 µM (active) and the GI50 (UACC-257) was > 27.7 µM (inactive).

For CC1=CC(=O)/C(=C/NC(=S)NCc2ccccc2)C(=O)O1, the GI50 (A549) was > 100 µM (inactive), the GI50 (COLO 205) was > 100 µM (inactive) and the GI50 (HCT-116) was > 100 µM (inactive). The GI50 (HL-60) was 75.3 µM (inactive), the GI50 (HOP-62) was > 100 µM (inactive) and the GI50 (HOP-92) was > 100 µM (inactive). The GI50 (MDA-MB-435) was > 100 µM (inactive), the GI50 (MDA-N) was > 100 µM (inactive) and the GI50 (NCI-H226) was > 100 µM (inactive). The GI50 (NCI-H522) was > 100 µM (inactive), the GI50 (PC-3) was > 100 µM (inactive) and the GI50 (SF-295) was > 100 µM (inactive). The GI50 (SF-539) was > 100 µM (inactive), the GI50 (SK-MEL-28) was > 100 µM (inactive) and the GI50 (SK-MEL-2) was > 100 µM (inactive). For the same molecule, the GI50 (SK-MEL-5) was > 100 µM (inactive), the GI50 (SN12C) was > 100 µM (inactive) and the GI50 (SR) was > 100 µM (inactive). The GI50 (SW-620) was > 100 µM (inactive) and the GI50 (UACC-257) was > 100 µM (inactive).

For O=C(OC1C#CCSCC#C/C=C\1)c1cnc2ccccc2n1 (stereo unspecified), the GI50 (COLO 205) was 14.6 µM (inactive), the GI50 (HCT-116) was > 100 µM (inactive) and the GI50 (HL-60) was 30.6 µM (inactive). The GI50 (HOP-62) was > 100 µM (inactive), the GI50 (HOP-92) was > 100 µM (inactive) and the GI50 (MDA-MB-435) was > 100 µM (inactive). For the same molecule, the GI50 (MDA-N) was > 100 µM (inactive), the GI50 (NCI-H226) was 79.4 µM (inactive) and the GI50 (NCI-H522) was > 100 µM (inactive). The GI50 (PC-3) was > 100 µM (inactive), the GI50 (SF-295) was > 100 µM (inactive) and the GI50 (SF-539) was > 100 µM (inactive). For the same molecule, the GI50 (SK-MEL-28) was > 100 µM (inactive), the GI50 (SK-MEL-2) was > 100 µM (inactive) and the GI50 (SN12C) was > 100 µM (inactive). The GI50 (SR) was 12.2 µM (inactive), the GI50 (SW-620) was > 100 µM (inactive) and the GI50 (UACC-257) was > 100 µM (inactive).

In the case of CCc1nc(N)nc(N)c1-c1ccc(NCCN)c([N+](=O)[O-])c1, the GI50 (A549) is reported as 4.19 µM (inactive), the GI50 (COLO 205) is reported as 14.2 µM (inactive) and the GI50 (HCT-116) is reported as 2.52 µM (inactive). The GI50 (HL-60) was 3.99 µM (inactive), the GI50 (HOP-62) was 18.2 µM (inactive) and the GI50 (HOP-92) was 27.6 µM (inactive). For the same molecule, the GI50 (MDA-MB-435) was 7.13 µM (inactive), the GI50 (MDA-N) was 6.92 µM (inactive) and the GI50 (NCI-H226) was > 96.8 µM (inactive). The GI50 (NCI-H522) was 13.7 µM (inactive), the GI50 (PC-3) was 6.53 µM (inactive) and the GI50 (SF-295) was 11.3 µM (inactive). For the same molecule, the GI50 (SF-539) was 11.6 µM (inactive), the GI50 (SK-MEL-28) was > 59.3 µM (inactive) and the GI50 (SK-MEL-2) was 46.7 µM (inactive). For the same molecule, the GI50 (SK-MEL-5) was 9.79 µM (inactive), the GI50 (SN12C) was 12.1 µM (inactive) and the GI50 (SR) was 4 µM (inactive). The GI50 (SW-620) was 5 µM (inactive) and the GI50 (UACC-257) was 14.3 µM (inactive).
